Experimental data reported in patent publication US20050192240A1, “Methods and compositions relating to expression factors” (priority 2004, published 2005).
In brackets after ≈: the same amount, converted by molar mass. Like-named read-outs stand apart in the source and are kept apart here.

Assays:
Format in all cases: cell-based
C. albicans [1] = test: Etest antifungal strip susceptibility of C. albicans strains
Method: The three C. albicans strains SC5314 (wild type), YLO133 (homozygous mutant Candt80/Candt80) and YLO137 (rescued strain of YLO133 with one copy of CaNDT80), were also tested for susceptibility to five different drugs using the Etest. Five different antifungal strips (AB BIODISK, Solna, Sweden) were used: amphotericin B at 0.002-32 μg/ml (AP), 5-fluorocytosine at 0.002-32 μg/ml (FC), fluconazole at 0.016-256 μg/ml (FL), itraconazole at 0.002-32 μg/ml (IT) and ketoconazole at 0.002-32 μg/ml (KE). Each strain was grown overnight on an SD plate and homogenized colonies from the plate were transferred into 0.85% NaCl to achieve a suspension of about 5×10^6 cells/ml. A sterile swab was dipped into the inoculum suspension and the entire agar surface of a SD plate was evenly streaked. Each plate was dried until excess moisture was completely absorbed and each of the five different Etest strips were applied onto each plate. The plates were incubated at 30° C. and were photographed after 2 days of growth. Susceptibility to a drug is indicated by a clear inhibition zone around the antifungal strip where growth has been inhibited. Degree of susceptibility is indicated by the size of the ring.

S. cerevisiae = test: Etest antifungal strip susceptibility of S. cerevisiae strains; settings: for MIC: Saccharomyces cerevisiae, SD plate, 30° C., read-out: minimum inhibitory concentration (MIC)
Source text: The effect on drug susceptibility by overexpression of CaNdt80p and its S. cerevisiae homolog, Ndt80p, were compared using the antifungal strips, Etest (AB BIODISK, Solna, Sweden) (Arendrup et al., J. Antimicrob. Chemother. 47:521-526, 2001; Chang et al., J. Clin. Microbiol 39:1328-1333, 2001). S. cerevisiae Ndt80p was identified as a meiosis specific transcription factor (Chu et al., Science 282:699-705, 1998; Chu and Herskowitz, Mol. Cell 1:685-696, 1998). Ndt80p is autoregulated and activates its targets through a mid-sporulation element consensus site (MSE: gNCRCAAAA/T) in the target (Chu and Herskowitz, Mol. Cell 1:685-696, 1998). Expression of the NDT80 gene is repressed during vegetative growth (Xu et al., Mol. Cell Biol. 15:6572-6581, 1995; Pak and Segall, Mol. Cell Biol. 22:6417-6429, 2002).
First, homogenized isolated colonies from an overnight SD plate were transferred into a 0.85% NaCl solution to achieve a suspension containing 5×10^6 cells/ml. A sterile swab was dipped into the inoculum suspension and the entire agar surface of an SD plate was streaked evenly with the swab. The plates were allowed to dry until all excess moisture was completely absorbed, and the Etest strips (AB BIODISK, Solna, Sweden) were applied onto each plate. The plates were incubated at 30° C. and were photographed after 3 days of growth. These Etest strips tested the susceptibility to ketoconazole (0.002-32 μg/ml) (KE) and fluconazole (0.016-256 μg/ml) (FL). Susceptibility is indicated by a clear ring around the antifungal strips where growth has been inhibited. Degree of susceptibility is indicated by the size of the ring. The strains tested were the NDT80/NDT80 wild type S. cerevisiae strain transformed with the control vectors 2μ-URA3and CEN-LEU2 (Christianson et al., Gene 110:119-122, 1992; Sikorski and Hieter, Genetics 122:19-27, 1989) (designated as strain SLO16) (“NDT80/NDT80” lane in FIG. 6); a ndt80/ndt80 homozygous mutant transformed with the control 2μ-URA3 vector (designated as strain SLO14) (“ndt80/ndt80 2μ vector” lane in FIG. 6); a ndt80/ndt80 homozygous mutant transformed with the 2μ-URA3-NDT80 plasmid, LOB46 (designated as strain SLO13) (“ndt80/ndt80 2μ NDT80” lane in FIG. 6); and a ndt80/ndt80 homozygous mutant transformed with the 2μ-URA3-CaNDT80 plasmid, LOB44 (designated as strain SLO15) (“ndt80/ndt80 2μ CaNDT80” lane in FIG. 6).
In a separate experiment, a strain harboring the LOB44 plasmid without the NDT80 gene was tested in the Etest.

C. albicans [2] = test: Agar dilution assay of C. albicans strains; settings: Candt80/Candt80 mutant versus wild-type or rescued strain; fluconazole 25 μg/ml, voriconazole 1 μg/ml
Method: The cdr1/cdr1 homozygous mutant was constructed according to Sanglard et al., Antimicrob. Agents Chemother. 40:2300-2305, 1996. Fluconazole and voriconazole were prepared to a final concentration of 25 μg/ml and 1 μg/ml, respectively in dimethylsulfoxide (DMSO). C. albicans cells grown on media containing DMSO and in the absence of drug, was used as the control. C. albicans cells were diluted to an OD600 of 2 (corresponding to approximately 2×10^7cells/ml) and 0.5 μl was spotted onto plates containing either fluconazole (25 μg/ml) or voriconazole (1 μg/ml) using a replica device (Oxoid Inc., Canada). Cells were also prepared and spotted in 10-fold serial dilutions (10^4 to 10 cells).

C. albicans [3] = test: RT-PCR of CDR1 and CaNDT80 mRNA with or without miconazole; settings: miconazole 100 μg/ml, one hour, 30° C.; strains SC5314, YLO133, YLO137
Method: C. albicans strains SC5314 (wild type), YLO133 (homozygous mutant Candt80/Candt80) and YLO137 (rescued strain of YLO133 with one copy of CaNDT80), were grown in the presence or absence of the antifungal agent, miconazole (Sigma) at 100 μg/ml for one hour at 30° C. The level of mRNAs of TEF3 (control), CDR1, and CaNDT80, was measured by reverse transcriptase polymerase chain reaction (RT-PCR). […] Lanes 2-4 and 11-13 represent mRNA from YLO133 (homozygous mutant), lanes 5-7 and 14-16 represent mRNA from YLO137 (rescued mutant), and lanes 8-10 and 17-19 represent mRNA from the wild-type strain, SC5314. Lanes 2, 5, 8, 11, 14, and 17 were tested for TEF3 mRNA (internal control); lanes 3, 6, 9, 12, 15, and 18, were tested for CDR1 mRNA; and lanes 4, 7, 10, 13, 16, and 19 were tested for CaNDT80 mRNA. As expected, no CaNDT80 mRNA was detected in the homozygous mutant (FIG. 9, lanes […] and 13). In contrast, CaNDT80 mRNA was detected in the wild-type strain during vegetative growth (FIG. 9, lanes 10 and 19), unlike its homolog NDT80 in S. cerevisiae.

[4] = homozygous mutant Candt80/Candt80 (YLO133) compared with wild type SC5314, 2 days
[5] = S. cerevisiae overexpressing CaNDT80 (LOB44 plasmid)
[6] = S. cerevisiae transformed with control vector

Structure (SMILES)	drug susceptibility (inhibition zone) (C. albicans [1]; [4])	MIC (S. cerevisiae; [5]) [µg/mL]	MIC (S. cerevisiae; [6]) [µg/mL]	susceptibility (growth on drug plates) (C. albicans [2])	other results
Nc1nc(=O)[nH]cc1F [5-fluorocytosine]	increased susceptibility	–	–	–	–
OC(Cn1cncn1)(Cn1cncn1)c1ccc(F)cc1F [fluconazole]	increased susceptibility	64 (≈ 209 µM)	24 (≈ 78.4 µM)	more susceptible	drug susceptibility (inhibition zone) (C. albicans [1]; rescued strain YLO137 (one copy of CaNDT80) compared with wild type SC5314, 2 days): more susceptible
CC(=O)N1CCN(c2ccc(OCC3COC(Cn4ccnc4)(c4ccc(Cl)cc4Cl)O3)cc2)CC1 (stereo not drawn) [ketoconazole]	increased susceptibility	≥ 32	6 (≈ 11.3 µM)	–	drug susceptibility (inhibition zone) (S. cerevisiae; ndt80/ndt80 2μ CaNDT80 compared with NDT80/NDT80 S. cerevisiae, 3 days): decreased
Clc1ccc(COC(Cn2ccnc2)c2ccc(Cl)cc2Cl)c(Cl)c1 (stereo not drawn) [miconazole]	–	–	–	–	patterns of TEF3, CDR1 and CaNDT80 mRNA with versus without treatment (C. albicans [3]): comparable
C[C@@H](c1ncncc1F)[C@](O)(Cn1cncn1)c1ccc(F)cc1F [voriconazole]	–	–	–	more susceptible	–
